Data: patent US20230225991A1, “COMPOUNDS FOR USE IN THE TREATMENT OF ACUTE INTERMITTENT PORPHYRIA” (VESTLANDETS INNOVASJONSSELSKAP AS, priority 2019, published 2023)
Values after ≈ are worked out from the molar mass of the structure shown. Values belong to the compound of their own block, whether it stands above or below them.

Assays:
[1] = target: T1, HMBS (Homo sapiens, UniProt P08397); experiment: Octet RED KD determination (Example 21); type: binding; parameters: Full-length HMBS was cloned into pET-28a(+)-TEV vector and transformed into BL21 (DE3) cells for expression; 6xHis (N, cleaved yes); TEV protease cleavage site (N, cleaved yes); made in house; host or cells: E. coli BL21 (DE3); conditions: steady state analysis, 6.25 to 500 μM, PBS-P+ 5% DMSO
T1 sequence (P08397 1-361): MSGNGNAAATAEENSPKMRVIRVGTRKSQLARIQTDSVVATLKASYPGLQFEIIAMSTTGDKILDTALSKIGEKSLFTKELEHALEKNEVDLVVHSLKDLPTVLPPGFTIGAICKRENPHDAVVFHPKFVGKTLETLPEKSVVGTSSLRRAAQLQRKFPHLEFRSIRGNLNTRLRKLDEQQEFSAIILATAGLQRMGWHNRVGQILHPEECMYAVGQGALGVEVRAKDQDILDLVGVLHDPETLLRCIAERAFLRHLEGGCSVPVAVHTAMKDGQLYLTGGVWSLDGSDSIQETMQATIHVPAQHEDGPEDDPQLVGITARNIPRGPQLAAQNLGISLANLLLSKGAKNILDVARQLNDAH
Experimental: Octet RED (Forte Bio) was used for screening binding and determining the KD values of various compounds. OctetRED is based on the technique called Bio-layer interferometry (BLI). It measures changes in an interference pattern generated from visible light reflected from an optical layer and a biolayer containing proteins of interest. In the assay the target protein is biotinylated and coupled as a layer on the optic probe (Super Strepavidin). The concentration series was from 6.25 to 500 μM.
For the analysis method of KD determination, steady state analysis was used, where the response from steady state of the association phase was used for determining the binding curve for the analyte. Buffer for the analysis was selected to PBS-P+5% DMSO.

[2] = Solubility in DMSO and in buffer (Table 5); type: physicochemical; conditions: for Soluble in DMSO (100%): 100% DMSO; for solubility: aqueous buffer, numeric values; for solubility / Solubility in buffer: buffer; for Solubility in buffer: stated in words
[3] = target: T2, WT-HMBS (Homo sapiens, UniProt P08397); experiment: Octet RED96 KD determination (Example 22); type: binding; conditions: PBS-P+ 5% DMSO; for Binding: Octet RED96, 3.1 to 150 μM; for Kd: Octet RED96, steady state, sigmoidal fitting, 3.1 to 150 μM
T2 construct: Full-length HMBS was cloned into pET-28a(+)-TEV vector and transformed into BL21 (DE3) cells for expression; 6xHis (N, cleaved yes); TEV protease cleavage site (N, cleaved yes); made in house; host or cells: E. coli BL21 (DE3)
T2 sequence (P08397 1-361): T1 sequence (P08397 1-361)
Experimental: Octet RED96 (Forte Bio) was used for screening binding and determining the KD values for certain compounds. In the assay the target protein (WT-HMBS) was biotinylated and coupled as a layer on the optic probe. The concentration series for the tested compounds were from 3.1 to 150 μM, dissolved in PBS-P+5% DMSO.
For the analysis method of KD determination, steady state analysis was used in which the response from steady-state of the association phase was used for determining the binding curve for the analyte. KD values were calculated using sigmoidal fitting. The buffer for the analysis was selected to PBS-P+5% DMSO.

[4] = target: T2, WT-HMBS; experiment: DSF thermal upshift (ΔTm) of HMBS; type: binding; conditions: Table 3, average compound concentration 122 μM (2% DMSO)
Experimental: Compounds BG-2, BG-3 and BG-4 were tested on recombinant WT-HMBS using DSF and tryptic proteolysis.

[5] = target: T2, WT-HMBS; experiment: Limited proteolysis by trypsin; type: biochemical; conditions: Table 3; 84 μM compound, 2% DMSO
Experimental: Limited proteolysis by trypsin was performed at 37° C. in 20 mM HEPES, 150 mM NaCl, 2% DMSO, pH 8.2, with 0.15 μg/μl HMBS in the absence (DMSO-control) or presence of 84 μM compound and 2% DMSO. The proteolysis was initiated by adding 1 μg/ml TPCK-treated trypsin (Sigma-Aldrich). After 30 min, aliquots were removed and transferred to Laemmli loading buffer containing 2 μg/ml soybean trypsin inhibitor. Samples resolved by electrophoresis with 10% Mini-Protean® TGX™ gels (Bio-Rad Laboratories, Inc.) were analyzed using the Image Lab™ software (Bio-Rad Laboratories, Inc.). The unpaired t-test (two tailed) was performed using GraphPad Prism.
Limited tryptic proteolysis was also applied to compound BG-1. Proteolysis of WT-HMBS provided three major bands with relative content 34.5±0.3%, 14.7±0.8% and 50.9±0.5%, corresponding to remaining full-length HMBS (˜42.5 kDa), and two fragments of ˜41.0 kDa and ˜31.5 kDa, respectively (FIG. 1). […] The effect of this compound at 84 μM on the steady-state enzyme kinetics of HMBS was then calculated (Table 2).

[6] = target: T1, HMBS; experiment: Activity measurements in vitro (Example 23, TECAN plate reader); type: biochemical; conditions: 5 and 50 μM compound in 2.5% DMSO, 30 min at 37° C., compared to HMBS with DMSO only
Experimental: Activity measurements were carried out using TECAN plate reader for absorbance measurements. Activity measurements were based on measuring the light absorbance at 405 nm for determining the concentration of formed product, preuroporphyrinogen. Standard curve for measurements was measured using absorbance of known concentrations for Uroporphyrin I dihydrochloride, the cyclic derivative of preuroporphyrinogen. Two concentrations of the compound of Example 14, i.e. 5 and 50 μM in 2.5% DMSO were used. Protein was incubated 30 min in 37° C. with the compound, and mixed with MIX-buffer (50 mM HEPES pH 8, 2.5% DMSO) on Corning 96 well plate (clear bottom, half area, black). The solutions were pre-warmed to 37° C. prior to reaction. Reaction was started by adding PBG and after 5 min the reaction was stopped by adding the STOP solution (5 M HCl and 0.1% p-Benzoquinone mixed 1:1). Wells were covered and protected from light during the whole reaction.

KD [1]: mM range (no saturation with 500 μM)
Compound: CN(C(=O)c1ccc(Cl)c([N+](=O)[O-])c1)c1ccccc1

KD [1]: mM range (no saturation with 500 μM)
Compound: Cc1cccc(C)c1C(=O)c1ccc(Cl)c([N+](=O)[O-])c1

KD [1]: mM range (no saturation with 500 μM)
Compound: O=C(c1ccncc1)c1ccc(Cl)c([N+](=O)[O-])c1

Kd [1]: 7 µM
Compound: Cc1ccc(C(=O)c2ccc(Cl)cc2)cc1[N+](=O)[O-]

Kd [1]: 110 µM
Compound: O=C(c1ccc(Cl)cc1)c1cc([N+](=O)[O-])ccc1Cl

KD [1]: mM range (no saturation with 500 μM)
Compound: O=C(c1ccc(Br)cc1)c1ccc(Cl)c([N+](=O)[O-])c1

Kd [1]: 300 µM
Compound: COc1ccc(C(=O)c2ccc(Cl)c([N+](=O)[O-])c2)cc1

KD [1]: mM range (no saturation with 500 μM)
Compound: O=C(c1ccc(Cl)c([N+](=O)[O-])c1)c1ccc(Cl)c([N+](=O)[O-])c1

Kd [1]: 140 µM
Compound: O=C(c1ccc(Cl)c(Cl)c1)c1ccc(Cl)c([N+](=O)[O-])c1

Kd [1]: > 200 µM
Compound: COc1ccc(C(O)c2ccc(Cl)c([N+](=O)[O-])c2)cc1 (stereo not drawn)

Kd [1]: 190 µM
Compound: O=Cc1cc(Cc2ccccc2Cl)ccc1O

Kd [1]: > 200 µM
Compound: O=C(c1ccc(OCCN2CCCC2)cc1)c1ccc(N2CCCC2)c([N+](=O)[O-])c1

Soluble in DMSO (100%) [2]: Yes
solubility [2]: 52 µM (≈ 19.2 µg/mL)
Compound: O=C(c1ccc(OC(F)(F)F)cc1)c1ccc(Cl)c(C(F)(F)F)c1

Binding [3]: Yes
Kd [3]: 9.3 µM
Soluble in DMSO (100%) [2]: Yes
Solubility in buffer [2]: Yes
Compound: O=Cc1cc(Cc2ccccc2Cl)cc(C(F)(F)F)c1O

ΔTm at 122 µM [4]: 6.6 °C
Protection against tryptic proteolysis [5]: +/− (+/−, ±2%)
Compound: O=Cc1cc(Cc2ccccc2)cc([N+](=O)[O-])c1O [BG-3]

ΔTm at 122 µM [4]: 4.7 °C
Protection against tryptic proteolysis [5]: +/− (+/−, ±2%)
Compound: O=[N+]([O-])c1cc(Cc2ccccc2Cl)cc(CO)c1O [BG-4]

HMBS activity in presence of compound [6]: activation of HMBS
Compound: OCc1cc(Cc2ccccc2Cl)cc(C(F)(F)F)c1O [Example 14, 4-(2-chlorobenzyl)-2-(hydroxymethyl)-6-(trifluoromethyl) phenol]

Compound: O=Cc1cc(Cc2ccccc2Cl)cc([N+](=O)[O-])c1O [drawing 43]
Kd [1]: 90 µM

KD [1]: mM range (no
Compound: O=C(c1ccccc1)c1ccc(Cl)c([N+](=O)[O-])c1 [drawing 44]

Compound: O=Cc1cc(Cc2ccccc2Cl)cc([N+](=O)[O-])c1O [drawing 59]
Binding [3]: Yes
Kd [3]: 83 µM
Soluble in DMSO (100%) [2]: Yes
solubility [2]: 384 µM (≈ 112 µg/mL)

Binding [3]: Yes
Kd [3]: 90 µM
Soluble in DMSO (100%) [2]: Yes
Solubility in buffer [2]: Yes
Compound: OCc1cc(Cc2ccccc2Cl)cc(C(F)(F)F)c1O [drawing 62]
